The subject of series [1] is COX (PGE2 and TXB2 synthesis). Nature of the series: LPS-induced prostanoid (PGE2, TXB2) synthesis in human monocytes. Type of series: cell-based. The conditions noted are these: LPS 200 ng/mL, 18 hrs, data at 10 μM. Here is the method:
Human peripheral blood monocytes were isolated from buffy coats by lymphoprep gradient separation followed by counter-current centrifugal elutriation. Test compounds were dissolved in DMSO and added to fresh monocytes to achieve concentrations of 0, 10 and 100 μM. After 30 min, lipopolysaccharide (LPS) was added to achieve a final concentration of 200 ng/mL. After incubation for 18 hrs at 37° C. in 5% CO2, supernatants were removed and PGE2 and TXB2 (the stable hydrolysis product of TXA2) production were measured by radioimmunoassay (RIA). ANOVA followed by Newman-Keuls multiple comparisons test was used to examine differences between doses and the control values.

Series [2] has as its system eNOS. Kind of series: eNOS mRNA expression in HAECs (real-time PCR). Type of series: cell-based, human. The following applies: 10 μM; for increase of eNOS mRNA over vehicle control (average): two more assays. Here is the method: HAECs were grown as described above.
(Real-time PCR tracks product formation cycle by cycle.)

The test system of series [3] is NFκB. Nature of the series: NFκB promoter activity, beta-lactamase reporter THP-1 cells stimulated with TNFα. The conditions noted are these: 30 μM; TNFα-stimulated THP-1 cells. It is filed as cell-based. As to the method: The assay utilised a genetically modified THP-1 cell line containing a stably-transfected beta-lactamase reporter gene under control of the NFkB response element and GeneBLAzer® beta-lactamase technology (Invitrogen Corp). The cells respond to stimulation with TNFα, causing activation of the NFκB signaling pathway. Co-incubation of cells with TNFα and test material allows quantitative determination of the ability of test material to inhibit TNFa-stimulated beta-lactamase production. An inflammatory index was calculated as the ratio of beta-lactamase product to beta-lactamase substrate.
THP-1 cells were seeded into wells of a 96-well plate in the presence of RPMI 1640 medium. TNFα was added to each well to give a final concentration of 7.5 ng/ml and dialyzed bovine serum was added. Compounds dissolved in DMSO were then added. Each plate also contained no-cell controls, no-serum controls and serum controls. Plates were incubated for 5 h at 37° C. to allow for NFκB-stimulated beta-lactamase production. LiveBLAzer™ FRET B/G Substrate (CCF4-AM) substrate was then added to assay. Once CCFA-AM enters a cell, it is converted to negatively charged CCF4 by endogenous esterases. Excitation of this substrate at 409 nm leads to efficient FRET between the coumarin and fluorescein moieties, resulting in a green fluorescence detectable at 530 nm. The presence of beta-lactamase leads to cleavage of CCF4 and results in a loss of FRET, resulting in a robust blue fluorescent signal detectable at 460 nm. Thus, activity of beta-lactamase (a marker of NFκB-promoter activity) is measured as a product to substrate ratio (blue/green fluorescence ratio: 460 nm/530 nm).

A short description of series [4]: THP-1 cell viability. Type of series: cell-based. The conditions noted are these: human, THP-1 cells, read-out: reduction of viability of the THP-1 cells. Here is the method: MTT is bioreduced by viable cells into a coloured formazan product that is soluble in DMSO. Thus the quantity of formazan product is directly proportional to the number of living cells in culture, and can be measured using a spectrophotometer at 570 nm. These compounds reduce MTT in the absence of cells, resulting in a change in substrate colour from yellow to purple. This activity is dependent on the reducing power of each compound and was measured at 5 concentrations (data not shown). The ability of compounds to reduce MTT was not related to their ability to inhibit NFkB-activity.

Series [5] addresses T1, PPARγ (Homo sapiens, UniProt P37231).
T1 construct: host or cells: HEK293 (human embryonic kidney), stably transfected
T1 sequence (P37231 238-503 limits assumed): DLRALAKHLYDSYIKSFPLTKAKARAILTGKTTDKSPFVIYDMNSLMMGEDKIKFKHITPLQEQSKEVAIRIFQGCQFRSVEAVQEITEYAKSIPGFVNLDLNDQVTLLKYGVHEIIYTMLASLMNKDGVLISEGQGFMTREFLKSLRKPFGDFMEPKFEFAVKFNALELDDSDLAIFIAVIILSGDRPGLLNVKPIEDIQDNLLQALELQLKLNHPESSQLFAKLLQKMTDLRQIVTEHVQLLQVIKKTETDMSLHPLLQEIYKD
Kind of series: PPARγ agonist activity, GAL4-PPARγ beta-lactamase reporter HEK293 cells. It is filed as cell-based. The following applies: FIG. 11: 5 μM. As to the method: Human HEK293 cells, stably transfected with the PPARγ ligand binding domain fused with the DNA binding domain of the GAL4 protein (GAL4-PPARγ fusion protein), produce beta-lactamase when incubated with PPARγ ligands. Transfected human kidney embryonic cells (Invitrogen Inc., Carlsbad, Calif.) were seeded onto matrigel in 96-well plates and allowed to attach overnight. The following day, vehicle alone (DMSO) or test compound at 1, 5 and 10 μM was added at varying concentrations to cells and incubated for 16-18 hours. Cells were then loaded with a FRET-based fluorescent substrate to assess beta-lactamase activity. Cells were protected from light, and incubated at room temperature for 2 h. Plates were read on a fluorescence plate reader with an excitation wavelength of 409 nm and emission wavelengths of 460 nm and 530 nm. Results were expressed as a ratio of these two wavelengths after the background (cell-free control wells) had been subtracted. PPARγ activity was thus determined by measuring beta-lactamase activity as assessed by a fluorescent product to substrate ratio.

The test system of series [6] is E-selectin. Kind of series: TNFα-induced E-selectin expression on HAECs (ELISA). It is filed as cell-based, human. The following applies: 10 μM. As to the method:
Inhibition of TNFα-stimulated endothelial cell activation by compounds was assessed by measuring surface expression of cell adhesion molecules with an ELISA. Human arterial endothelial cells (HAECs) in growth medium (Cell Applications Inc.) were seeded into 96-well plates at a density of 10,000 cells per well. Plates were incubated overnight at 37° C. in a humidified incubator to allow for cells to become confluent. On the morning of the experiment, TNFα (10 μl, 2 ng/ml) was added to each well, which contained 100 μl of medium. Compounds were diluted in DMSO-containing medium (2.5% DMSO) to give a compound concentration of 100 and 300 μM. Compounds were added to wells so that final concentrations were 10 and 30 μM. DMSO-containing medium alone was added to zero concentration control wells. All samples were measured in quadruplicate (4 wells per treatment).
After incubation with compound for 4 hours, medium was removed and cells were probed with either non-specific IgG or specific mouse antibodies against VCAM, ICAM or E-selectin (BD Biosciences—0.1 μg in 100 μL buffered saline with 10% heat-inactivated human serum). Adhesion molecule expression was detected by addition of sheep anti-mouse antibody/horseradish peroxidase conjugate. […] Optical density was measured at 405 nm with an ELISA reader (Titertek Multiscan, Flow Laboratories).

From patent publication US20090233999A1, “COMPOSITIONS AND THERAPEUTIC METHODS INVOLVING ISOFLAVONES AND ANALOGUES THEREOF” (NOVOGEN RESEARCH PTY LTD, priority 1999, published 2009) come the findings set out here.

Regarding `Cc1c(O)ccc2c1OCC(c1cccc(O)c1)=C2` [Cpd. 14, 3′,7-Dihydroxy-8-methylisoflav-3-ene], the “COX inhibitory activity (inhibition of PGE2 and TXA2 production)” value (“COX inhibitory activity” for short) in series [1] was “significant COX inhibitory activity”. In addition, in series [2] (24 hrs, HAECs), the “expression of eNOS” value is recorded as “significantly increased”. In addition, the “increase of eNOS mRNA over vehicle control (average)” value in series [2] is listed as 86%. Besides, in series [3], the NFκB promoter activity result is given as “significantly inhibited”.
For the compound `COc1cccc(C2=Cc3ccc(O)cc3OC2)c1` [Cpd. 16, 7-Hydroxy-3′-methoxyisoflav-3-ene], in series [4], the cytotoxicity at 30 μM was roughly 10%. Besides, the “PPARγ activation (increase in beta-lactamase activity)” value in series [5] is reported as “some PPARγ agonist activity”. Also, the “COX inhibitory activity” value in series [1] was “significant COX inhibitory activity”.
As to `COc1ccc(C2=Cc3ccc(O)cc3OC2)cc1OC` [Cpd. 18, 7-Hydroxy-3′,4′-dimethoxyisoflav-3-ene], the “COX inhibitory activity” value in series [1] is “significant COX inhibitory activity”. The “TNFα-induced E-selectin expression” value in series [6] was “inhibited”. The “increase of eNOS mRNA over vehicle control (average)” value in series [2] turned out to be 62%. In addition, the NFκB promoter activity entry in series [3] is recorded as “significantly inhibited”.
On to `COc1ccc(C2=Cc3ccc(O)c(C)c3OC2)cc1OC` [Cpd. 19, 7-Hydroxy-3′,4′-dimethoxy-8-methylisoflav-3-ene], for which, in series [5], the “PPARγ activation (increase in beta-lactamase activity)” value was “some PPARγ agonist activity”. Besides, the “COX inhibitory activity” value in series [1] is listed as “significant COX inhibitory activity”. Also, the NFκB promoter activity result in series [3] is reported as “significantly inhibited”.
In the case of `Oc1ccc(C2=Cc3ccc(O)c(Br)c3OC2)cc1` [Cpd. 20, 4′,7-Dihydroxy-8-bromoisoflav-3-ene], the “PPARγ activation (increase in beta-lactamase activity)” value in series [5] is given as “some PPARγ agonist activity”. For the same compound, the “COX inhibitory activity” value in series [1] was “significant COX inhibitory activity”. Moreover, the “TNFα-induced E-selectin expression” value in series [6] was “inhibited”. The NFκB promoter activity entry in series [3] was “significantly inhibited”.
For `Oc1ccc2c(c1)OCC(c1ccc(Br)cc1)=C2` [Cpd. 21, 4′-Bromo-7-hydroxyisoflav-3-ene], the cytotoxicity at 30 μM in series [4] is roughly 10%.
